Results: US10100057B2, “Imidazopyrimidine and imidazotriazine derivative, and pharmaceutical composition comprising the same” (SK BIOPHARMACEUTICALS CO., LTD., priority 2016, dated 2018)
pEC50: −log10 of the molar value.

Molecular target: human mGluR5 receptor (Homo sapiens (Human), UniProt P41594)
Assay: Calcium influx assay based on fluorescence (mGluR5 positive allosteric modulator activity)
Details: human mGluR5 receptor-overexpressed HEK293 cell line; L-glutamate EC20; Fluo-4, FLIPR; read-out: Human mGluR5 PAM EC50
Procedure: Efficacy as a positive allosteric modulator (PAM) of mGluR5 of the compounds of the Examples was tested as follows:
Calcium Influx Assay Based on Fluorescence
Ca^2+ (calcium) influx assay is an experiment for measuring the activity of a positive allosteric modulator of mGluR5 receptor in which human mGluR5 receptor-overexpressed HEK293 cell line is used. The day before the experiment, cells were prepared in a cell culture medium (DMEM, 5% FBS) with the density of 80,000/well, and 100 μl of cells were dispensed into each well of a poly-D-lysine-coated 96-well plate. Cells were incubated in a 5% CO2, 37° C. incubator. The next day, the cell culture medium was removed from the plate, and 100 μl of 1× Fluo-4 calcium indicator diluted with a buffer (1× Hank's balanced salt solution, 20 mM HEPES, 2.5 mM probenecid) were added to each well and incubated at 37° C. for 1 hour. The compound stock solutions were prepared in 100% DMSO, and the compounds were serially diluted with a 1/4 dilution to 6 or 7 concentrations (final concentration was 10 μM to 10 nM). The diluted compound solutions were added to the plate with 0.1 to 0.2% of final DMSO concentration. 1 hour after the addition of Fluo-4 calcium indicator, L-glutamate (EC20 concentration) and the test compound solutions were added to the plate, and Ca^2+ reaction was then measured by FLIPR at room temperature. The activity of the compounds was standardized on the basis of the results of maximum value-minimum value of fluorescent reaction, and the activity value was calculated on the basis that no activity on glutamate EC20 is 0% and the reaction to glutamate maximum value is 100%.

Chain of human mGluR5 receptor (P41594 21-1212): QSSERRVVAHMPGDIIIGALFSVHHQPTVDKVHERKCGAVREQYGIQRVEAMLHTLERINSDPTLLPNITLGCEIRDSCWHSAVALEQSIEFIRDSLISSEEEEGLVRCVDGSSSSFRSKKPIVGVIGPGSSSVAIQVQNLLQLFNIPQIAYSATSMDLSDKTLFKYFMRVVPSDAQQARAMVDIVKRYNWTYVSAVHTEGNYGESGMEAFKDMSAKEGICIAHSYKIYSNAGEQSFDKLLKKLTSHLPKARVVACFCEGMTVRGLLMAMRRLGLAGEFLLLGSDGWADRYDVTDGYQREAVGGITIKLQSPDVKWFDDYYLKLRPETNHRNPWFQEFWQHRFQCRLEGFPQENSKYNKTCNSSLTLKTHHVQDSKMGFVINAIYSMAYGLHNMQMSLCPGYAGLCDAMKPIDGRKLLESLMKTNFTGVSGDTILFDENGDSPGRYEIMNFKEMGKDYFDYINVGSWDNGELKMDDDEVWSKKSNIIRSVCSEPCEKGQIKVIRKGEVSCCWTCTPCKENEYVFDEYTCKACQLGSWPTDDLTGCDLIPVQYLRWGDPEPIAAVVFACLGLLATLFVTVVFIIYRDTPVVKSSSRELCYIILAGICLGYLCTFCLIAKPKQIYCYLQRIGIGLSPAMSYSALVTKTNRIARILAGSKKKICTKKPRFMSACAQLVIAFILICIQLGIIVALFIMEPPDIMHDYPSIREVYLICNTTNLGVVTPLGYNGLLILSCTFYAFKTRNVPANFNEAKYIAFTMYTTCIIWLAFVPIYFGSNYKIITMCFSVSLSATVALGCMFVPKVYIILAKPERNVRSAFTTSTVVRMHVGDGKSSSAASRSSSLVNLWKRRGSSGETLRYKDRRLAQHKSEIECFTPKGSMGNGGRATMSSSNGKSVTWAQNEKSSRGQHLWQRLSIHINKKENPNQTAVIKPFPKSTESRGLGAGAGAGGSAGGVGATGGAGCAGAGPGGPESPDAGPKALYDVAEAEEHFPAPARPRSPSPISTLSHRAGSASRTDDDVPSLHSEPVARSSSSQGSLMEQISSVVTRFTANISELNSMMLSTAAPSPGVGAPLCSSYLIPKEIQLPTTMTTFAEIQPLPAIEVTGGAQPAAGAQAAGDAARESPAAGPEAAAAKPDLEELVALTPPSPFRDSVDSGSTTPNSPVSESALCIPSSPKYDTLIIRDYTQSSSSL

Q: With `Fc1ccc(-c2cnc3nc(COc4ccccc4)cn3c2)c(F)c1` [Example 3, 6-(2,4-difluorophenyl)-2-phenoxymethylimidazo[1,2-a]pyrimidine] as the molecule, how does the pEC50 read?
A: ≥ 7.00

Q: `Cc1ccccc1-c1cnc2nc(COc3ccccc3)cn2c1` [Example 5, 6-(2-methylphenyl)-2-phenoxymethylimidazo[1,2-a]pyrimidine] was tested. Which pEC50 did it give?
A: ≥ 7.00

Q: `Cc1cc(F)ccc1-c1cnc2nc(COc3ccccc3)cn2c1` [Example 6, 6-(4-fluoro-2-methylphenyl)-2-phenoxymethylimidazo[1,2-a]pyrimidine] was tested. Which pEC50 did it give?
A: ≥ 7.00

Q: How did the pEC50 turn out when `OCc1cc(F)ccc1-c1cnc2nc(COc3ccccc3)cn2c1` [Example 25, 6-(4-fluoro-2-hydroxymethylphenyl)-2-phenoxymethylimidazo[1,2-a]pyrimidine] was run?
A: ≥ 7.00

Q: `Fc1ccc(OCc2cn3cc(-c4ccc(F)cc4Cl)cnc3n2)cc1` [Example 67, 6-(2-chloro-4-fluoro-phenyl)-2-[(4-fluorophenoxy)methyl]imidazo[1,2-a]pyrimidine] was tested. Which pEC50 did it give?
A: ≥ 7.00

Q: `Fc1cccc(OCc2cn3cc(-c4ccc(C(F)(F)F)nc4)cnc3n2)c1` [Example 80, 2-[(3-fluorophenoxy)methyl]-6-[6-(trifluoromethyl)-3-pyridyl)imidazo[1,2-a]pyrimidine] was tested. Which pEC50 did it give?
A: ≥ 7.00

Q: How did the pEC50 turn out when `Cc1cc(-c2cnc3nc(COc4ccc(F)cc4)cn3c2)cnc1F` [Example 91, 6-(6-fluoro-5-methyl-3-pyridyl)-2-[(4-fluorophenoxy)methyl]imidazo[1,2-a]pyrimidine] was run?
A: ≥ 7.00

Q: `Cc1cc(F)ccc1-c1cnc2nc(COc3cc(F)ccn3)cn2c1` [Example 116, 6-(4-fluoro-2-methyl-phenyl)-2-[(4-fluoro-2-pyridyl)oxymethyl)imidazo[1,2-a]pyrimidine] was tested. Which pEC50 did it give?
A: ≥ 7.00

Q: `Fc1ccc(-c2cnc3nc(COc4ccccn4)cn3c2)nc1` [Example 132, 6-(5-fluoro-2-pyridyl)-2-(2-pyridyloxymethyl)imidazo[1,2-a]pyrimidine] was tested. Which pEC50 did it give?
A: ≥ 7.00

Q: How did the pEC50 turn out when `Cc1cc(F)ccc1-c1cnc2nc(COc3ccnc(F)c3)cn2c1` [Example 162, 6-(4-fluoro-2-methylphenyl)-2-(2-fluoropyridin-4-yloxymethyl)imidazo[1,2-a]pyrimidine] was run?
A: ≥ 7.00

Q: With `Cc1ccccc1-c1cnc2nc(COc3ccnc(F)c3)cn2c1` [Example 168, 6-(2-methylphenyl)-2-(2-fluoropyridin-4-yloxymethyl)imidazo[1,2-a]pyrimidine] as the molecule, how does the pEC50 read?
A: ≥ 7.00

Q: `Cc1cc(F)ccc1-c1cnc2nc(COc3ccccn3)cn2n1` [Example 188, 2-(4-fluoro-2-methyl-phenyl)-6-(2-pyridyloxymethyl)imidazo[1,2-b][1,2,4]triazine] was tested. Which pEC50 did it give?
A: ≥ 7.00

Q: `FCc1cc(F)ccc1-c1cnc2nc(COc3ccccn3)cn2c1` [Example 198, 6-[4-fluoro-2-(fluoromethyl)phenyl]-2-(2-pyridyloxymethyl)imidazo[1,2-a]pyrimidine] was tested. Which pEC50 did it give?
A: ≥ 7.00
